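Interpolation was linear, between the two tested concentrations surrounding the appropriate level; five concentrations were tested over 48 hours in 96-well plates. GI50: concentration for 50% inhibition of growth. At the TGI there is no net growth.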
Columns and labels:
Test in all cases: NCI tumour cell line growth inhibition, 48 h
HCT-116 colon = tested on: HCT-116 colon
HCT-15 colon = tested on: HCT-15 colon
OVCAR-5 ovarian = tested on: OVCAR-5 ovarian
HOP-62 NSCLC = tested on: HOP-62 NSCLC
SK-MEL-5 melanoma = tested on: SK-MEL-5 melanoma
OVCAR-4 ovarian = tested on: OVCAR-4 ovarian
HL-60(TB) leukemia = tested on: HL-60(TB) leukemia
786-0 renal = tested on: 786-0 renal
SF-539 CNS = tested on: SF-539 CNS
SN12C renal = tested on: SN12C renal
HOP-92 NSCLC = tested on: HOP-92 NSCLC
T-47D breast = tested on: T-47D breast
SF-268 CNS = tested on: SF-268 CNS
NCI-H522 lung = tested on: NCI-H522 lung
LOX IMVI melanoma = tested on: LOX IMVI melanoma
RPMI-8226 leukemia = tested on: RPMI-8226 leukemia
PC-3 prostate = tested on: PC-3 prostate
U251 CNS = tested on: U251 CNS
NCI/ADR-RES ovarian = tested on: NCI/ADR-RES ovarian
SK-MEL-28 melanoma = tested on: SK-MEL-28 melanoma
HS 578T breast = tested on: HS 578T breast
UACC-62 melanoma = tested on: UACC-62 melanoma
MDA-MB-468 breast = tested on: MDA-MB-468 breast
A549 NSCLC = tested on: A549 NSCLC
OVCAR-3 ovarian = tested on: OVCAR-3 ovarian
ACHN renal = tested on: ACHN renal
SR leukemia = tested on: SR leukemia
CCRF-CEM leukemia = tested on: CCRF-CEM leukemia
M14 melanoma = tested on: M14 melanoma
KM12 colon = tested on: KM12 colon
CAKI-1 renal = tested on: CAKI-1 renal
UACC-257 melanoma = tested on: UACC-257 melanoma
HT29 colon = tested on: HT29 colon
UO-31 renal = tested on: UO-31 renal
A498 renal = tested on: A498 renal
COLO 205 colon = tested on: COLO 205 colon
NCI-H226 lung = tested on: NCI-H226 lung
OVCAR-8 ovarian = tested on: OVCAR-8 ovarian
SF-295 CNS = tested on: SF-295 CNS
MOLT-4 leukemia = tested on: MOLT-4 leukemia
DU-145 prostate = tested on: DU-145 prostate
HCC-2998 colon = tested on: HCC-2998 colon
IGROV1 ovarian = tested on: IGROV1 ovarian
BT-549 breast = tested on: BT-549 breast
SNB-75 CNS = tested on: SNB-75 CNS
K-562 leukemia = tested on: K-562 leukemia
MDA-MB-435 = tested on: MDA-MB-435
NCI-H460 lung = tested on: NCI-H460 lung
SK-OV-3 ovarian = tested on: SK-OV-3 ovarian
MALME-3M melanoma = tested on: MALME-3M melanoma
NCI-H23 lung = tested on: NCI-H23 lung
MCF7 breast = tested on: MCF7 breast
SNB-19 CNS = tested on: SNB-19 CNS
SW-620 colon = tested on: SW-620 colon
TK-10 renal = tested on: TK-10 renal
EKVX NSCLC = tested on: EKVX NSCLC
RXF 393 renal = tested on: RXF 393 renal
SK-MEL-2 melanoma = tested on: SK-MEL-2 melanoma
MDA-MB-231 breast = tested on: MDA-MB-231 breast

SMILES: CCc1ccc(SC2c3cc(OC)ccc3Oc3nc(N)c(C#N)c(N)c32)cc1 (stereo not drawn)
- GI50 (HCT-116 colon): 3.05 µM
- TGI (HCT-116 colon): 13.9 µM
- GI50 (HCT-15 colon): 2.96 µM
- TGI (HCT-15 colon): 19.3 µM
- GI50 (OVCAR-5 ovarian): 3.41 µM
- TGI (OVCAR-5 ovarian): 14.4 µM
- GI50 (HOP-62 NSCLC): 3.77 µM
- TGI (HOP-62 NSCLC): > 100 µM
- GI50 (SK-MEL-5 melanoma): 3.23 µM
- TGI (SK-MEL-5 melanoma): 13.7 µM
- GI50 (OVCAR-4 ovarian): 4.23 µM
- TGI (OVCAR-4 ovarian): 41.6 µM
- GI50 (HL-60(TB) leukemia): 2.09 µM
- TGI (HL-60(TB) leukemia): 6.11 µM
- GI50 (786-0 renal): 3.11 µM
- TGI (786-0 renal): 24.9 µM
- GI50 (SF-539 CNS): 1.59 µM
- TGI (SF-539 CNS): 3.27 µM
- GI50 (SN12C renal): 1.76 µM
- TGI (SN12C renal): 15.8 µM
- GI50 (HOP-92 NSCLC): 3.66 µM
- TGI (HOP-92 NSCLC): 35.4 µM
- GI50 (T-47D breast): 3.36 µM
- TGI (T-47D breast): 32.9 µM
- GI50 (SF-268 CNS): 1.99 µM
- TGI (SF-268 CNS): 20.5 µM
- GI50 (NCI-H522 lung): 1.69 µM
- TGI (NCI-H522 lung): 3.49 µM
- GI50 (LOX IMVI melanoma): 0.23 µM
- TGI (LOX IMVI melanoma): 0.658 µM
- GI50 (RPMI-8226 leukemia): 3.02 µM
- TGI (RPMI-8226 leukemia): 14.6 µM
- GI50 (PC-3 prostate): 1.52 µM
- TGI (PC-3 prostate): 18.6 µM
- GI50 (U251 CNS): 1.82 µM
- TGI (U251 CNS): 15.3 µM
- GI50 (NCI/ADR-RES ovarian): 3.24 µM
- TGI (NCI/ADR-RES ovarian): 26.4 µM
- GI50 (SK-MEL-28 melanoma): 2.99 µM
- TGI (SK-MEL-28 melanoma): 12.5 µM
- GI50 (HS 578T breast): 2.35 µM
- TGI (HS 578T breast): 9.18 µM
- GI50 (UACC-62 melanoma): 2.73 µM
- TGI (UACC-62 melanoma): 11.5 µM
- GI50 (MDA-MB-468 breast): 2.1 µM
- TGI (MDA-MB-468 breast): 6.56 µM
- GI50 (A549 NSCLC): 3.99 µM
- TGI (A549 NSCLC): 49.4 µM
- GI50 (OVCAR-3 ovarian): 2.9 µM
- TGI (OVCAR-3 ovarian): 12.6 µM
- GI50 (ACHN renal): 5.6 µM
- TGI (ACHN renal): 25.3 µM
- GI50 (SR leukemia): 2.61 µM
- TGI (SR leukemia): 22.8 µM
- GI50 (CCRF-CEM leukemia): 0.225 µM
- TGI (CCRF-CEM leukemia): 4.34 µM
- GI50 (M14 melanoma): 2.67 µM
- TGI (M14 melanoma): 12.4 µM
- GI50 (KM12 colon): 3.43 µM
- TGI (KM12 colon): 16.1 µM
- GI50 (CAKI-1 renal): 1.89 µM
- TGI (CAKI-1 renal): 15 µM
- GI50 (UACC-257 melanoma): 9.06 µM
- TGI (UACC-257 melanoma): 29.6 µM
- GI50 (HT29 colon): 6.15 µM
- TGI (HT29 colon): > 100 µM
- GI50 (UO-31 renal): 0.575 µM
- TGI (UO-31 renal): 4.17 µM
- GI50 (A498 renal): 3.32 µM
- TGI (A498 renal): 10.8 µM
- GI50 (COLO 205 colon): 2.35 µM
- TGI (COLO 205 colon): 6.19 µM
- GI50 (NCI-H226 lung): 2.26 µM
- TGI (NCI-H226 lung): 23.3 µM
- GI50 (OVCAR-8 ovarian): 5.85 µM
- TGI (OVCAR-8 ovarian): 37.4 µM
- GI50 (SF-295 CNS): 3.28 µM
- TGI (SF-295 CNS): 15.7 µM
- GI50 (MOLT-4 leukemia): 1.28 µM
- TGI (MOLT-4 leukemia): 9.69 µM
- GI50 (DU-145 prostate): 11.7 µM
- TGI (DU-145 prostate): 24.6 µM
- GI50 (HCC-2998 colon): 4.9 µM
- TGI (HCC-2998 colon): 17.1 µM
- GI50 (IGROV1 ovarian): 0.349 µM
- TGI (IGROV1 ovarian): 1.51 µM
- GI50 (BT-549 breast): 0.742 µM
- TGI (BT-549 breast): 3.25 µM
- GI50 (SNB-75 CNS): 0.566 µM
- TGI (SNB-75 CNS): 4.02 µM
- GI50 (K-562 leukemia): 3.51 µM
- TGI (K-562 leukemia): 24.4 µM
- GI50 (MDA-MB-435): 2.05 µM
- TGI (MDA-MB-435): 11.6 µM
- GI50 (NCI-H460 lung): 2.84 µM
- TGI (NCI-H460 lung): 15.3 µM
- GI50 (SK-OV-3 ovarian): 6.62 µM
- TGI (SK-OV-3 ovarian): 82.4 µM
- GI50 (MALME-3M melanoma): 10.6 µM
- TGI (MALME-3M melanoma): 22.7 µM
- GI50 (NCI-H23 lung): 2.9 µM
- TGI (NCI-H23 lung): 14 µM
- GI50 (MCF7 breast): 3.04 µM
- TGI (MCF7 breast): 13.6 µM
- GI50 (SNB-19 CNS): 3.17 µM
- TGI (SNB-19 CNS): 16.6 µM
- GI50 (SW-620 colon): 3.15 µM
- TGI (SW-620 colon): 13.1 µM
- GI50 (TK-10 renal): 9.67 µM
- TGI (TK-10 renal): 32.2 µM
- GI50 (EKVX NSCLC): 3.74 µM
- TGI (EKVX NSCLC): 17.3 µM
- GI50 (RXF 393 renal): 1.76 µM
- TGI (RXF 393 renal): 5.09 µM
- GI50 (SK-MEL-2 melanoma): 3.42 µM
- TGI (SK-MEL-2 melanoma): 13 µM
- GI50 (MDA-MB-231 breast): 3.34 µM
- TGI (MDA-MB-231 breast): 17 µM

— PubChem BioAssay (NCI)
